This passage reports mortality, percent effect (mortality or growth inhibition) and inhibition results from patent publication US20260206751A1, “NOVEL BICYCLIC-CARBOXAMIDE COMPOUNDS USEFUL AS PESTICIDES” (SYNGENTA CROP PROTECTION AG, priority 2022, published 2026).

Common to all, as to assay type: in vivo
Experiment [1] concerns Myzus persicae (Green Peach Aphid). Kind of experiment: Myzus persicae (green peach aphid) feeding/contact activity, sunflower leaf discs. The note with it: foliar, 144 h, application rate 200 ppm, sprayed sunflower leaf discs, aphid population of mixed ages, 6 days after infestation. On the procedure:
Example B4: Myzus persicae (Green Peach Aphid):Feeding/Contact Activity
Sunflower leaf discs were placed onto agar in a 24-well microtiter plate and sprayed with aqueous test solutions prepared from 10,000 ppm DMSO stock solutions. After drying, the leaf discs were infested with an aphid population of mixed ages. The samples were assessed for mortality 6 days after infestation.

For experiment [2], the system named is Diabrotica balteata (Corn Root Worm). In words: Diabrotica balteata (corn root worm) feeding/contact activity. The conditions noted are these: 96 h, application rate 200 ppm, sprayed maize sprouts, L2 larvae, 4 days after infestation, read-out: effect in at least one of the two categories (mortality or growth inhibition). Here is the method:
Example B1: Diabrotica balteata (Corn Root Worm) Feeding/Contact Activity
Maize sprouts placed onto an agar layer in 24-well microtiter plates were treated with aqueous test solutions prepared from 10,000 ppm DMSO stock solutions by spraying. After drying, the plates were infested with L2 larvae (6 to 10 per well). The samples were assessed for mortality and growth inhibition in comparison to untreated samples 4 days after infestation.

The test system of experiment [3] is Euschistus heros (Neotropical Brown Stink Bug). Kind of experiment: Euschistus heros (neotropical brown stink bug) feeding/contact activity. The conditions noted are these: 120 h, application rate 200 ppm, sprayed soybean leaves, N2 nymphs, 5 days after infestation, read-out: effect in at least one of the two categories (mortality or growth inhibition). Here is the method: Example B2: Euschistus heros (Neotropical Brown Stink Bug) Feeding/Contact Activity
Soybean leaves on agar in 24-well microtiter plates were sprayed with aqueous test solutions prepared from 10,000 ppm DMSO stock solutions. After drying the leaves were infested with N2 nymphs. The samples were assessed for mortality and growth inhibition in comparison to untreated samples 5 days after infestation.

Experiment [4] has as its system Frankliniella occidentalis (Western Flower Thrips). Kind of experiment: Frankliniella occidentalis (western flower thrips) feeding/contact activity. The note with it: foliar, 168 h, application rate 200 ppm, sprayed sunflower leaf discs, population of mixed ages, 7 days after infestation. Here is the method: Example B3: Frankliniella occidentalis (Western Flower Thrips): Feeding/Contact Activity
Sunflower leaf discs were placed on agar in 24-well microtiter plates and sprayed with aqueous test solutions prepared from 10,000 DMSO stock solutions. After drying the leaf discs were infested with a Frankliniella population of mixed ages. The samples were assessed for mortality 7 days after infestation.

The subject of experiment [5] is Myzus persicae (Green Peach Aphid). In words: Myzus persicae (green peach aphid) intrinsic activity. The note with it: 120 h, test rate 12 ppm, mixed with sucrose solution, Parafilm, infested pea seedlings, 5 days after infestation. From the text: Example B5: Myzus persicae (Green Peach Aphid). Intrinsic Activity
Test compounds prepared from 10,000 ppm DMSO stock solutions were applied by pipette into 24-well microtiter plates and mixed with sucrose solution. The plates were closed with a stretched Parafilm. A plastic stencil with 24 holes was placed onto the plate and infested pea seedlings were placed directly on the Parafilm. The infested plate was closed with a gel blotting paper and another plastic stencil and then turned upside down. The samples were assessed for mortality 5 days after infestation.

The test system of experiment [6] is Plutella xylostella (Diamond Back Moth). In words: Plutella xylostella (diamond back moth) feeding/contact activity. The note with it: 192 h, application rate 200 ppm, artificial diet, Plutella eggs, 8 days after infestation, read-out: effect in at least one of the two categories (mortality or growth inhibition). Here is the method:
Example B7: Plutella xylostella (Diamond Back Moth) Feeding/Contact Activity
24-well microtiter plates with artificial diet were treated with aqueous test solutions prepared from 10,000 ppm DMSO stock solutions by pipetting. After drying, Plutella eggs were pipetted through a plastic stencil onto a gel blotting paper and the plate was closed with it. The samples were assessed for mortality and growth inhibition in comparison to untreated samples 8 days after infestation.

For experiment [7], the system named is Spodoptera littoralis (Egyptian Cotton Leaf Worm). Kind of experiment: Spodoptera littoralis (Egyptian cotton leaf worm) feeding/contact activity. The conditions noted are these: foliar, 72 h, application rate 200 ppm, sprayed cotton leaf discs, L1 larvae, 3 days after infestation, read-out: control (mortality, anti-feeding effect, growth inhibition). Here is the method:
Example B8: Spodoptera littoralis (Egyptian Cotton Leaf Worm) Feeding/Contact Activity
Cotton leaf discs were placed onto agar in 24-well microtiter plates and sprayed with aqueous test solutions prepared from 10,000 ppm DMSO stock solutions. After drying the leaf discs were infested with five L1 larvae. The samples were assessed for mortality, anti-feeding effect, and growth inhibition in comparison to untreated samples 3 days after infestation. Control of Spodoptera littoralis by a test sample is given when at least one of the categories mortality, anti-feedant effect, and growth inhibition is higher than the untreated sample.

Experiment [8] relates to Myzus persicae (Green Peach Aphid). Kind of experiment: Myzus persicae (green peach aphid) feeding/contact activity, eggplant leaf discs. The note with it: foliar, 144 h, application rate 200 ppm, sprayed eggplant leaf discs, aphid population of mixed ages, 6 days after infestation, read-out: growth inhibition. Here is the method: Example B6: Myzus persicae (Green Peach Aphid) Feeding/Contact Activity Eggplant leaf discs were placed onto agar in a 24-well microtiter plate and sprayed with aqueous test solutions prepared from 10,000 ppm DMSO stock solutions. After drying, the leaf discs were infested with an aphid population of mixed ages. The samples were assessed for mortality 6 days after infestation.

The compound `Cc1c(OC[C@H](C)NS(=O)(=O)C(F)(F)F)cc(C(N)=O)c2c1CCC2` [P-1, 7-methyl-6-[(2S)-2-(trifluoromethylsulfonylamino)propoxy]indane-4-carboxamide] displayed a mortality at 200 ppm in experiment [1] of no less than 80%.
Still for that read-out and setting: the same measure for `CCN1OC[C@@H](NC(=O)c2cc(OC[C@H](C)NS(=O)(=O)C(F)(F)F)c(C)c3c2CCC3)C1=O` [P-2, N-[(4R)-2-ethyl-3-oxo-isoxazolidin-4-yl]-7-methyl-6-[(2S)-2-(trifluoromethylsulfonylamino)propoxy]indane-4-carboxamide]: no less than 80%.
For `Cc1c(OC[C@H](C)NS(=O)(=O)C(F)(F)F)cc(C(=O)NC2CC2)c2c1CCC2` [P-3], the percent effect (mortality or growth inhibition) at 200 ppm in experiment [2], in experiment [3] and in experiment [6] was no less than 80% each time. Moreover, the mortality at 200 ppm in experiment [4] and in experiment [1] was no less than 80% each time. Further, in experiment [5], the mortality at 12 ppm is no less than 80%.
For `COC(=O)C1(NC(=O)c2cc(OC[C@H](C)NS(=O)(=O)C(F)(F)F)c(C)c3c2CCC3)CC1` [P-4, methyl 1-[7-methyl-6-[(2S)-2-(trifluoromethylsulfonylamino)propoxy]indane-4-carbonyl]amino] cyclopropanecarboxylate], the mortality at 200 ppm in experiment [1] is no less than 80%. Also, the percent effect (mortality or growth inhibition) at 200 ppm in experiment [6] was no less than 80%.
Turning to `Cc1c(OC[C@H](C)NS(=O)(=O)C(F)(F)F)cc(C(=O)NC2(C(=O)O)CC2)c2c1CCC2` [P-5], the mortality at 200 ppm in experiment [1] was no less than 80%.
Same read-out and setting: for `CO/N=C/NC(=O)c1cc(OC[C@H](C)NS(=O)(=O)C(F)(F)F)c(C)c2c1CCC2` [P-6, N-[(E)-methoxyiminomethyl]-7-methyl-6-[(2S)-2-(trifluoromethylsulfonylamino)propoxy]indane-4-carboxamide] the value was no less than 80%.
`Cc1c(OC[C@H](C)NS(=O)(=O)C(F)(F)F)cc(C(=O)NC2(C#N)CC2)c2c1CCC2` [P-7, N-(1-cyanocyclopropyl)-7-methyl-6-[(2S)-2-(trifluoromethylsulfonylamino)propoxy]indane-4-carboxamide]: the mortality at 200 ppm in experiment [4] and in experiment [1] was no less than 80% each time. This compound had a mortality at 12 ppm in experiment [5] of no less than 80%.
With `C[C@@H](COc1cc2c(c(C(=O)NC3(C#N)CC3)c1)CCCC2)NS(=O)(=O)C(F)(F)F` [P-8, N-(1-cyanocyclopropyl)-7-[(2S)-2-(trifluoromethylsulfonylamino)propoxy]tetralin-5-carboxamide], in experiment [1], the mortality at 200 ppm is no less than 80%. This compound also had a mortality at 12 ppm in experiment [5] of no less than 80%. The percent effect (mortality or growth inhibition) at 200 ppm in experiment [6] was no less than 80%.
In the case of `C[C@@H](COc1cc2c(c(C(=O)NC3CC3)c1)CCCC2)NS(=O)(=O)C(F)(F)F` [P-9, N-cyclopropyl-7-[(2S)-2-(trifluoromethylsulfonylamino)propoxy]tetralin-5-carboxamide], the mortality at 200 ppm in experiment [1] is no less than 80%. This compound also gave a mortality at 12 ppm in experiment [5] of no less than 80%. Also, in experiment [6], the percent effect (mortality or growth inhibition) at 200 ppm was no less than 80%.
Turning to `C[C@@H](COc1cc2c(c(C(=O)NC3(C#N)CCC3)c1)CCCC2)NS(=O)(=O)C(F)(F)F` [P-11, N-(1-cyanocyclobutyl)-7-[(2S)-2-(trifluoromethylsulfonylamino)propoxy]tetralin-5-carboxamide], the mortality at 12 ppm in experiment [5] was no less than 80%.
As to `C[C@@H](COc1cc2c(c(C(=O)NCC(F)(F)F)c1)CCCC2)NS(=O)(=O)C(F)(F)F` [P-15, N-(2,2,2-trifluoroethyl)-7-[(2S)-2-(trifluoromethylsulfonylamino)propoxy]tetralin-5-carboxamide], in experiment [6], the percent effect (mortality or growth inhibition) at 200 ppm was no less than 80%.
With `C[C@@H](COc1cc2c(c(C(=O)Nc3ccc(F)cc3F)c1)CCCC2)NS(=O)(=O)C(F)(F)F` [P-22, N-(2,4-difluorophenyl)-7-[(2S)-2-(trifluoromethylsulfonylamino)propoxy]tetralin-5-carboxamide], the mortality at 200 ppm in experiment [7] was no less than 80%.
In experiment [4], `C[C@@H](COc1cc2c(c(C(=O)NCc3ncccn3)c1)CCCC2)NS(=O)(=O)C(F)(F)F` [P-23, N-(pyrimidin-2-ylmethyl)-7-[(2S)-2-(trifluoromethylsulfonylamino)propoxy]tetralin-5-carboxamide] yielded a mortality at 200 ppm of no less than 80%.
In the case of `Cc1cc(F)ccc1NC(=O)c1cc(OC[C@H](C)NS(=O)(=O)C(F)(F)F)cc2c1CCCC2` [P-28, N-(4-fluoro-2-methyl-phenyl)-7-[(2S)-2-(trifluoromethylsulfonylamino)propoxy]tetralin-5-carboxamide], the percent effect (mortality or growth inhibition) at 200 ppm in experiment [6] was no less than 80%.
`C[C@@H](COc1cc2c(c(C(N)=O)c1)CCCC2)NS(=O)(=O)C(F)(F)F` [P-30, 7-[(2S)-2-(trifluoromethylsulfonylamino)propoxy]tetralin-5-carboxamide]: the inhibition at 200 ppm in experiment [8] was no less than 80%.
As to `C[C@@H](COc1cc2c(c(C(=O)NC34CC(C3)C4)c1)CCCC2)NS(=O)(=O)C(F)(F)F` [P-32, N-(1-bicyclo[1.1.1]pentanyl)-7-[(2S)-2-(trifluoromethylsulfonylamino)propoxy]tetralin-5-carboxamide], the mortality at 12 ppm in experiment [5] was no less than 80%. In addition, the percent effect (mortality or growth inhibition) at 200 ppm in experiment [6] is no less than 80%.
For `C[C@@H](COc1cc2c(c(C(=O)NC3CC3)c1)CCC2)NS(=O)(=O)C(F)(F)F` [P-33, N-cyclopropyl-6-[(2S)-2-(trifluoromethylsulfonylamino)propoxy]indane-4-carboxamide], the percent effect (mortality or growth inhibition) at 200 ppm in experiment [3] is no less than 80%. In addition, the inhibition at 200 ppm in experiment [8] is no less than 80%.
For `Cc1c(OC[C@H](C)NS(=O)(=O)C(F)(F)F)cc(C(=O)NCC(F)(F)F)c2c1CCC2` [P-39, 7-methyl-N-(2,2,2-trifluoroethyl)-6-[(2S)-2-(trifluoromethylsulfonylamino)propoxy]indane-4-carboxamide], the percent effect (mortality or growth inhibition) at 200 ppm in experiment [6] was no less than 80%.
Turning to `Cc1c(OC[C@H](C)NS(=O)(=O)C(F)(F)F)cc(C(=O)NC2CON(CC(F)(F)F)C2=O)c2c1CCC2` (stereo partly drawn) [P-40, 7-methyl-N-[3-oxo-2-(2,2,2-trifluoroethyl)isoxazolidin-4-yl]-6-[(2S)-2-(trifluoromethylsulfonylamino)propoxy]indane-4-carboxamide], the mortality at 12 ppm in experiment [5] is no less than 80%. For the same compound, the percent effect (mortality or growth inhibition) at 200 ppm in experiment [6] was no less than 80%.
As for `Cc1c(OC[C@H](C)NS(=O)(=O)C(F)(F)F)cc(C(=O)NC23CC(C2)C3)c2c1CCC2` [P-41, N-(1-bicyclo[1.1.1]pentanyl)-7-methyl-6-[(2S)-2-(trifluoromethylsulfonylamino)propoxy]indane-4-carboxamide], the mortality at 12 ppm in experiment [5] was no less than 80%. For the same compound, the percent effect (mortality or growth inhibition) at 200 ppm in experiment [6] was no less than 80%.
On to `Cc1cc(F)ccc1NC(=O)c1cc(OC[C@H](C)NS(=O)(=O)C(F)(F)F)c(C)c2c1CCC2` [P-42, N-(4-fluoro-2-methyl-phenyl)-7-methyl-6-[(2S)-2-(trifluoromethylsulfonylamino)propoxy]indane-4-carboxamide], for which, in experiment [5], the mortality at 12 ppm is no less than 80%.
